We go through one molecule from US7727736B2, “Soluble phospholipids for use in clotting factor assays” (The University of North Carolina at Chapel Hill, priority 2003, dated 2010).

The target of assay [1] is T1, FXa (Homo sapiens, UniProt P00742). Kind of assay: Influence of DAPA on FXa activity in prothrombin activation. The conditions noted are these: in the presence of C6PS, concentration of DAPA used herein. Also on record: Human prothrombin and factor Xa; purchased Hematologic Technologies Inc. (factor Xa); factor Va from human plasma, in house. The assay is classed as biochemical. The method, then:
Despite this, it has been shown that it provides rates of prothrombin activation in the presence of PS/PC membranes equivalent to those detected by activity measurements (Wu, et al. (2002) supra; Weinreb, et al. (2003) supra). To test whether DAPA influenced the activity of FXa in the presence of C6PS, the expected DAPA fluorescence was calculated based on the rate of appearance of thrombin and MzIIa, as detected by synthetic substrate assay as recorded in FIG. 6A. This calculation has been described (Wu, et al. (2002) supra) and its results, as applied to the data herein, are shown in the inset to FIG. 6A (filled circles) along with an experimental time-course of DAPA fluorescence change (open diamonds) reflecting prothrombin activation. Similar results were obtained at the other prothrombin concentrations examined.

Assay [2] concerns the target T1, FXa. Also on record: Human prothrombin and factor Xa; purchased Hematologic Technologies Inc. (factor Xa); factor Va from human plasma, in house. The conditions noted are these: Nesheim et al. (1979); cited from earlier work.

T1 sequence (P00742 41-179 limits assumed): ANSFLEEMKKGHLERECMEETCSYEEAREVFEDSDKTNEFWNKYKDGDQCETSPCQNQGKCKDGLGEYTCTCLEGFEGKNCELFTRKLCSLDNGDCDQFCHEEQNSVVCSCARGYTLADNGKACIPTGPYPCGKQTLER
T1 sequence (P00742 235-488 limits assumed): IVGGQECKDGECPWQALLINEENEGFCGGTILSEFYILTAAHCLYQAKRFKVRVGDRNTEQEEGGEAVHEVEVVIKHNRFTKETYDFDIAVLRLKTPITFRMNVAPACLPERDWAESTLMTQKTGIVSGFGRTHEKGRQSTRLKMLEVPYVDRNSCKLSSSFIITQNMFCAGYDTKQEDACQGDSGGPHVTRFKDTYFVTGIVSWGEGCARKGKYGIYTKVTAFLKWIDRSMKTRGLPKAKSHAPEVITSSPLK
T1 sequence (P12259 29-737 partner limits assumed): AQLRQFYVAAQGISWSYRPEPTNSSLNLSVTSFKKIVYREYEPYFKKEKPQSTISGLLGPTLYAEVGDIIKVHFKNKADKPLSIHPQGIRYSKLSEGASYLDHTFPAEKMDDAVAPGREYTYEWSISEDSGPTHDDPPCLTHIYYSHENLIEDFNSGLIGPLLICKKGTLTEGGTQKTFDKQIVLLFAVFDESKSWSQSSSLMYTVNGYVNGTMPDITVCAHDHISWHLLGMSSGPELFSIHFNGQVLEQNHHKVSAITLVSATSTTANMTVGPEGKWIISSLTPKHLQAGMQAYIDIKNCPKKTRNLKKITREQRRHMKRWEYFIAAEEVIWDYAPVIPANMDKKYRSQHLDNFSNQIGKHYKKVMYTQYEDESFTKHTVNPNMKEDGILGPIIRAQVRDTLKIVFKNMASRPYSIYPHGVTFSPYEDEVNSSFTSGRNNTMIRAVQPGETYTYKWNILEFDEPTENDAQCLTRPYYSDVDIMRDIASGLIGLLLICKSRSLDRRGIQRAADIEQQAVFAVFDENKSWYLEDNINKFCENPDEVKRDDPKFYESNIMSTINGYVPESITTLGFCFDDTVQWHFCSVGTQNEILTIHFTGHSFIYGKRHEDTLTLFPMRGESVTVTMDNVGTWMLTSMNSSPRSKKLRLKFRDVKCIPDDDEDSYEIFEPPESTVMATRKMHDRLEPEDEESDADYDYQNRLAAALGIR
T1 sequence (P12259 1574-2224 partner limits assumed): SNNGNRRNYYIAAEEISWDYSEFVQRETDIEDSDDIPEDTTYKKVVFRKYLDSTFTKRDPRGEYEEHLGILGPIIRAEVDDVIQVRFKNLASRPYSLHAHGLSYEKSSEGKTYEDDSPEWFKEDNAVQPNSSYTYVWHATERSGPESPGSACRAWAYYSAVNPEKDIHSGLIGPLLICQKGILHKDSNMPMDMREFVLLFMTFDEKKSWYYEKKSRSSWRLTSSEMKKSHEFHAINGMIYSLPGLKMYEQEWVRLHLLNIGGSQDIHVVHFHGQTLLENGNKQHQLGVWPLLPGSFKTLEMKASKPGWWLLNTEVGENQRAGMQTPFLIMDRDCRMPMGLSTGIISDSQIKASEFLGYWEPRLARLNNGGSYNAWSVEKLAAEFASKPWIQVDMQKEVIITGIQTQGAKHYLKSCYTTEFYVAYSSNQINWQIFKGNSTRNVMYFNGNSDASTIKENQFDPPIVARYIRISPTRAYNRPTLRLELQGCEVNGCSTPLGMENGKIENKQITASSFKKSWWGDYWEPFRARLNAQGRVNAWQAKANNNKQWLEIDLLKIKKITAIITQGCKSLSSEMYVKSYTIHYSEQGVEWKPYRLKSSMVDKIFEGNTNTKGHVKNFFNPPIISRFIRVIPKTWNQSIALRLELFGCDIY

Regarding `CCC1CCN(C(=O)C(CCCN=C(N)N)NS(=O)(=O)c2cccc3c(N(C)C)cccc23)CC1` (centres unmarked) [DAPA, dansylarginine-N-(3-ethyl-1,5-pentanediyl) amide], the “influence of DAPA on FXa activity” value at FXa [1] is recorded as “does not influence FXa activity to a measurable extent”. Besides, at FXa [2], the “inhibition of FXa by DAPA” value is “weak competitive inhibitor”.
